What was measured:
[1] = tested on: human umbilical vein endothelial cell (HUVEC); test: Cytotoxicity of NBD-nitroxide, viable cell count; assay type: cell-based; conditions: viable cells after incubation for 24 hours
Protocol: Cytotoxicity of NBD-nitroxide was evaluated using human umbilical vein endothelial cell (HUVEC). When each concentration of the compound was added to HUVEC and the number of viable cells after incubation for 24 hours was counted, cytotoxicity was not observed up to 10 μM in any NBD-nitroxide.

[2] = Scavenging of lipid radicals in hepatocellular carcinoma model mouse, LC/FL/MS of liver lipid extract; assay type: in vivo, mice (C57BL/6J)
Protocol: It is appropriately selected according to the present invention, but not limited to, HPLC analysis is performed in this Example by injecting 10 μL of a sample solution into an InertSusteain® C18 analytical column (filled with ES silica having a particle size of 3 μm, 2.0×150 mm) manufactured by Mitsubishi Chemical Corporation, which is eluted with a mobile phase (A: 5.0 mM ammonium acetate in H2O, B:ACN:H2O (95:5)) at 40° C. at a rate of 0.4 ml/min. The time program of mobile phase elution was set to B %: 0 to 22 min; 60%, 22 to 60 min; 80%, 60 to 70 min; 100%.
For each fraction eluted, fluorescence observation from NBD-Pen was performed at excitation wavelength (470 nm) and emission wavelength (530 nm) with a fluorescence detector (RF-20A xs manufactured by Shimadzu Corporation).
Next, each fraction thus obtained was introduced into an ion detector (Q Exactive™ Hibrid Quadrupole-Orbitrap™ MS manufactured by Thermo Fisher Scientific Co., Ltd.) by electrospray ionization (ESI) and subjected to mass spectrometry.
Male mice (C57BL/6J) at 8 weeks of age were divided into two groups. As a control, physiological saline (PBS) was administered to mice in Group 1 by intraperitoneal injection. DEN at 100 mg/kg was administered to mice in Group 2 by intraperitoneal injection.
Four hours after DEN administration, a 500 μM NBD-Pen solution was administered at 4 ml/kg to mice in Groups 1 and 2 by intraperitoneal injection.
Fifteen minutes after administration of NBD-Pen, livers were excised from the mice in the respective groups and lipid extraction was performed. LC/FL/MS analysis was performed on extracts under the same conditions as in Example 1. The structure of the radical adduct was analyzed by comparing the fluorescence peak observed at the LC/FL site with the precise mass analysis result at that column retention time. The results are described in Table 2 and FIG. 11.

[3] = Reactivity of NBD-nitroxide with reactive oxygen species by fluorometry; conditions: hydrogen peroxide, hypochlorous acid
Protocol: (§1) In order to investigate reaction selectivities of the above three types of NBD-nitroxide (NBD-Me, NBD-Et and NBD-Pen), reactivities with various ROS and lipid radical were evaluated by fluorometry. […] In addition, in the reaction with these compounds, no significant difference in fluorescence intensity was observed between these nitroxides, and there was no difference between the 2nd and 6th position substituents.

[4] = Reactivity of NBD-nitroxide with lipid radicals by fluorometry; conditions: for fluorescence intensity on reaction with lipid radical: lipid radical produced using lipoxygenase (LOX) for LA, ALA or AA, FIG. 3
Protocol: as §1

[5] = tested on: MDA, ALT (GPT), IL-6 in liver extracts of DEN-administered rats; test: Liver lipid peroxidation, hepatic injury and inflammatory markers after DEN administration; assay type: in vivo, rats (F344); conditions: rat liver extract 24 h after DEN 100 mg/kg i.p.; 500 μM solution at 4 ml/kg 1 h after DEN; vs DEN group; FIG. 5
Protocol: (§2) Six week-old male rats (F344) were divided into 4 groups, and as a control, rats in Group 1 were administered with saline (PBS) by intraperitoneal injection. Rats in Groups 2-4 were administered with DEN at 100 mg/kg by intraperitoneal injection.
(§3) One hour after DEN administration, physiological saline was administered to rats in Group 2 by intraperitoneal injection, rats in Group 3 were administered with a 500 μM OH-Pen solution at 4 ml/kg, and rats in Group 4 were administered with a 500 μM OH-Pen-NOMe solution at 4 ml/kg.
Twenty-four hours after DEN administration, livers were excised from rats in the respective groups and lipid extraction was carried out. For extracts, amounts of malondialdehyde; MDA as a peroxidized lipid marker, alanine transaminase (glutamate pyruvate transferase; ALT (GPT)) as a hepatic injury marker, and interleukin-6; IL-6 as an inflammatory marker were measured.

hepatocellular carcinoma = test: Hepatocellular carcinogenesis three months after DEN administration, number of tumor foci; assay type: in vivo, rats (F344); conditions: rats three months after DEN 100 mg/kg i.p.; 500 μM solution at 4 ml/kg 1 h after DEN; FIG. 6
Protocol: as §2, §3
Three months after DEN administration, rats in the respective groups were subjected to mixed anesthesia of 3 species, and they were sacrificed and livers were taken out promptly. Photographs of the livers taken from the rats of the respective groups are shown in FIG. 6, and the result of counting the number of tumor foci is shown in FIG. 6b.

[6] = Gr. 1, no DEN (PBS), mouse liver 15 min after 500 μM NBD-Pen 4 ml/kg i.p.
[7] = Gr. 2, DEN 100 mg/kg i.p., NBD-Pen 500 μM 4 ml/kg i.p. 4 h after DEN, liver 15 min later
[8] = superoxide anion radical, hydroxy radical or nitric oxide, FIG. 3

| Molecule | fluorescence on reaction with reactive oxygen species [3, 8] | fluorescence intensity on reaction with lipid radical [4] | alanine transaminase ALT (GPT), hepatic injury marker [5] | interleukin-6 (IL-6), inflammatory marker [5] | malondialdehyde (MDA), peroxidized lipid marker [5] | hepatocellular carcinogenesis (number of tumor foci) (hepatocellular carcinoma) | other results |
| --- | --- | --- | --- | --- | --- | --- | --- |
| 2,2,6-trimethyl-4-(4-nitrobenzo[1,2,5]oxadiazol-7-ylamino)-6-pentylpiperadine-1-oxyl [NBD-Pen] | fluorescence did not increase much | significantly elevated | – | – | – | – | concentration up to which cytotoxicity was not observed [1]: > 10 µM; Fluorescent intensity of NBD-Pen-R (a.u.) R [2, 6]: 29.72 a.u.; Fluorescent intensity of NBD-Pen-R (a.u.) R C2H5 [2, 6]: 72.95 a.u.; Fluorescent intensity of NBD-Pen-R (a.u.) R C3H7 [2, 6]: 143.69 a.u.; Fluorescent intensity of NBD-Pen-R (a.u.) R C5H11 [2, 6]: 393.38 a.u.; Fluorescent intensity of NBD-Pen-R (a.u.) R [2, 7]: 353.94 a.u.; Fluorescent intensity of NBD-Pen-R (a.u.) R C2H5 [2, 7]: 704.15 a.u.; Fluorescent intensity of NBD-Pen-R (a.u.) R C3H7 [2, 7]: 1604.07 a.u.; Fluorescent intensity of NBD-Pen-R (a.u.) R C5H11 [2, 7]: 3511.72 a.u.; fluorescence on reaction with reactive oxygen species ([3]; superoxide anion radical or hydroxy radical, FIG. 4): fluorescence did not increase much; reactivity with the lipid radicals and thermal stability of nitroxide-lipid complex, comparison among Compounds A to C [4]: predominant; fluorescence intensity on reaction with lipid radicals ([4]; LA, ALA, AA activated with LOX, AAPH or MeO-AMVN, FIG. 4): remarkably increased |
| CCC1(CC)CC(Nc2ccc([N+](=O)[O-])c3nonc23)CC(CC)(CC)N1[O] [NBD-Et] | fluorescence did not increase much | significantly elevated | – | – | – | – | – |
| CC1(C)CC(Nc2ccc([N+](=O)[O-])c3nonc23)CC(C)(C)N1[O] [NBD-Me] | fluorescence did not increase much | significantly elevated | – | – | – | – | – |
| CCCCCC1(C)CC(O)CC(C)(C)N1[O] (centres unmarked) [OH-Pen, 4-hydroxy-2,2,6-trimethyl-6-pentylpiperidine-1-oxyl] | – | – | significantly decreased | significantly decreased | significantly decreased | suppressed hepatocellular carcinogenesis | – |
| CCCCCC1(C)CC(O)CC(C)(C)N1OC (centres unmarked) [OH-Pen-NOMe, 4-hydroxy-1-methoxy-2,2,6-trimethyl-6-pentylpiperidine-1-oxyl] | – | – | almost no drop | almost no drop | almost no drop | not suppressed at all | – |
